Measured values published in patent publication US11866430B2, “Naphthyridinone compounds useful as T cell activators” (priority 2018, dated 2024).

Legend:
[1] = target: T1, human DGKα (Homo sapiens (Human), UniProt P23743); assay: biochemical; settings: detergent/lipid micelle substrate; read-out: DGKα IC50
Summary of the method: (§1)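 Full-length human DGKζ (and DGKα), C-terminal His-tagged, Sf9-expressed, with phosphatidylserine/DAG micelles in 50 mM octyl glucoside; buffer 50 mM MOPS pH 7.5, 100 mM NaCl, 10 mM MgCl2, 1 μM CaCl2, 1 mM DTT.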

[2] = test system: Jurkat AP1-luciferase Reporter; assay: DGK AP1-Reporter Assay; format: cell-based; settings: Homo sapiens, Jurkat, read-out: API-Luciferase Reporter IC50, Table 3
Experimental: The Jurkat AP1-luciferase Reporter was generated using the Cignal Lenti AP1 Reporter (luc) Kit from SABiosciences (CLS-011L).
The sample size was 30 nl per well; and one destination plate per source plate. The cell suspensions were prepared by transferring 40 mL cells (2×20 mL) to clean 50 mL conical tubes. The cells were concentrated by centrifugation (1200 rpm; 5 mins; ambient temperature). […] The cell plates were incubated for 20 minutes at 37° C., and 5% CO2.
During the incubation, anti-CD3 antibody (αCD3) solutions were prepared by mixing 3 μl αCD3 (1.3 mg/mL) with 10 mL medium [final conc=0.4 μg/mL]. Next, 1.5 μl αCD3 (1.3 mg/mL) was mixed with 0.5 mL medium [final conc=4 μg/mL]. After 20 minutes, 10 μl medium was added to all wells in column 1, wells A to M, and 10 μl αCD3 (4 μg/mL) per well was added in column 1, rows N to P for reference. Then using a multi-channel pipette, 10 μl αCD3 (0.4 μg/mL) per well was added. The αCD3 stimulated +/− compound-treated cells were incubated at 37° C., 5% CO2 for 6 hours.
During this incubation period. Steady-Glo (Promega E2520) reagent was slowly thawed on to ambient temperature. Next, 20 μl Steady-Glo reagent per well was added using a multi-drop Combi-dispenser. Bubbles were removed by centrifugation (2000 rpm, ambient temperature, 10 sees). The cells were incubated at room temperature for 5 minutes. Samples were characterized by measuring the Relative Light Units (RLU) with an using Envision Plate Reader Instrument on a luminescence protocol.

[3] = target: T2, human DGKζ (Homo sapiens (Human), UniProt Q13574); assay: DGKζ assay (detergent/lipid micelle substrate); format: biochemical; settings: detergent/lipid micelle substrate; read-out: DGKζ IC50
Summary of the method: as §1

[4] = test system: pre-activated CD4 T cells and Raji cells; assay: Raji CD4 T Cell IL2 Assay; format: cell-based; settings: Homo sapiens, Raji
[5] = target: T1, human DGKα; assay: DGKα LIPGLO assay (extruded liposome substrate); format: biochemical
Summary of the method: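 Human full-length DGKα, His-tagged and produced in Sf9 cells, assayed at 20 nM (4× stock) on extruded liposomes of PS, 0.25 mM DAG and 2.75 mM PC, preincubated 10 min. Reaction started with 300 μM ATP (stock) and ran 1 h in MOPS pH 7.5/MgCl2/CaCl2/DTT buffer.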

[6] = target: T2, human DGKζ; assay: DGKζ LIPGLO assay (extruded liposome substrate); format: biochemical; settings: extruded liposome substrate; read-out: DGKζ LIPGLO IC50
Summary of the method: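 Sf9-derived DGKζ was premixed 10 min with PC/DAG/PS liposomes (100 nm extruded) in MOPS pH 7.5 buffer containing NaCl, MgCl2, CaCl2 and DTT.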

T2 sequence (Q13574 other isoform, or with tags, fused parts or gaps): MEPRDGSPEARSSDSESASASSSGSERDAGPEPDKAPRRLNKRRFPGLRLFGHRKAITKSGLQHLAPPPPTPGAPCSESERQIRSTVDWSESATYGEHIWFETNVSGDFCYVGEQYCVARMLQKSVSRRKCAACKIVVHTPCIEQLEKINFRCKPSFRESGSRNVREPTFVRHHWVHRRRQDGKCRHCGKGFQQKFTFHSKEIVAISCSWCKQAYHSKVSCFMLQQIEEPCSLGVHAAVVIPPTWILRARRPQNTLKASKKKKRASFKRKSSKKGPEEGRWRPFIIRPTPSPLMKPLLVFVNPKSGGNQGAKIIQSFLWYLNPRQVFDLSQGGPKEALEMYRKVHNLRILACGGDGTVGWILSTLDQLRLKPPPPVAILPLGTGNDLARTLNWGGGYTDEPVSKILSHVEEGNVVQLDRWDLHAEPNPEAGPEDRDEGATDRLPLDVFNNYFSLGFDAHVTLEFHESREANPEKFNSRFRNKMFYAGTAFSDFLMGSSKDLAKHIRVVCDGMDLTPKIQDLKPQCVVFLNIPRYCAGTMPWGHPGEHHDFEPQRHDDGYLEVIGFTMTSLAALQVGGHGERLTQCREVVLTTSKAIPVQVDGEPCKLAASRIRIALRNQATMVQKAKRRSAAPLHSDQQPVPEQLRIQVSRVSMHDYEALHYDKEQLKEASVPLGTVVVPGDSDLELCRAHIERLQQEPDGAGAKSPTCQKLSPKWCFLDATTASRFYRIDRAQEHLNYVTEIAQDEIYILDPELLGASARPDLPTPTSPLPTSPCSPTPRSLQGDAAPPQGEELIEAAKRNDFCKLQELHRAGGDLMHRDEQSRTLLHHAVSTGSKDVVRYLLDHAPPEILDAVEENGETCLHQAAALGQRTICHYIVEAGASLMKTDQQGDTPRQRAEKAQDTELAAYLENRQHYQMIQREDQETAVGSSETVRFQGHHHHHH
T1 sequence (P23743 other isoform, or with tags, fused parts or gaps): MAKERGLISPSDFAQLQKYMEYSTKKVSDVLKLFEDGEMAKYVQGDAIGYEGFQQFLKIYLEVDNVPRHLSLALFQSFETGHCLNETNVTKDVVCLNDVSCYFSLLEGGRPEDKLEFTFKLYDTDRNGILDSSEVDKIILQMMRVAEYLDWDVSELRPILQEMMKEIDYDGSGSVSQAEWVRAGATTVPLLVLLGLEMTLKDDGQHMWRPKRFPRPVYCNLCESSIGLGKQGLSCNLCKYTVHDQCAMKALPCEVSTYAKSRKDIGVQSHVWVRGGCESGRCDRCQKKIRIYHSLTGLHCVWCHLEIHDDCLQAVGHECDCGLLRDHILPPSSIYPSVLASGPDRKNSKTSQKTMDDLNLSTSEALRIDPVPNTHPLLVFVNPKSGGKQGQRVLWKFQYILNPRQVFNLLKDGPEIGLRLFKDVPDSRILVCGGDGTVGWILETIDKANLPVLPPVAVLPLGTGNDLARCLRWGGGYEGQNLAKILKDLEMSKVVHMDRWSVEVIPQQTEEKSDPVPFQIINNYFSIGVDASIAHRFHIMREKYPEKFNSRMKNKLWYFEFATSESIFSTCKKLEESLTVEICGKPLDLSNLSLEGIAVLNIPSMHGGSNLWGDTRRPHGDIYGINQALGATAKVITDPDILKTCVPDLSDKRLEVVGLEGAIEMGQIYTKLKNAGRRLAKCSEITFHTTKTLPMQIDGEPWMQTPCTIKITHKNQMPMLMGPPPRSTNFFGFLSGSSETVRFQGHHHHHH

## COc1cc(F)ccc1C(c1ccc(F)cc1)N1CCN(c2c(C#N)c(=O)n(C)c3ccc(Br)nc23)CC1 (racemic) [Example 15, 6-bromo-4-{4-[(4-fluoro-2-methoxyphenyl)(4-fluorophenyl)methyl]piperazin-1-yl}-1-methyl-2-oxo-1,2-dihydro-1,5-naphthyridine-3-carbonitrile]
[1]
  IC50: 550 nM
[2]
  IC50: 1820 nM
[3]
  IC50: 58000 nM

## COCCn1c(=O)c(C#N)c(N2CCN(C(c3ccc(F)cc3)c3ccc(F)cc3)CC2)c2nc(Br)ccc21 [Example 113, 4-(4-(bis(4-fluorophenyl)methyl)piperazin-1-yl)-6-bromo-1-(2-methoxyethyl)-2-oxo-1,2-dihydro-1,5-naphthyridine-3-carbonitrile]
[2]
  IC50: 580 nM

## Cn1c(=O)c(C#N)c(N2CCN(Cc3ccccc3Cl)CC2)c2nc(Br)ccc21 [Example 300, 6-bromo-4-{4-[(2-chlorophenyl)methyl]piperazin-1-yl}-1-methyl-2-oxo-1,2-dihydro-1,5-naphthyridine-3-carbonitrile]
[1]
  IC50: 2000 nM
[4]
  IC50: 160 nM
[3]
  IC50: > 240000 nM
[5]
  IC50: 24000 nM
[6]
  IC50: 98000 nM

## Cn1c(=O)c(C#N)c(N2CCN(Cc3cccc(F)c3O)CC2)c2nc(Br)ccc21 [Example 304, 6-bromo-4-{4-[(3-fluoro-2-hydroxyphenyl)methyl]piperazin-1-yl}-1-methyl-2-oxo-1,2-dihydro-1,5-naphthyridine-3-carbonitrile]
[1]
  IC50: 330 nM
[4]
  IC50: 190 nM
[3]
  IC50: 68000 nM
[5]
  IC50: 610 nM
[6]
  IC50: 5800 nM

## COc1ccc(O)c(CN2CCN(c3c(C#N)c(=O)n(C)c4ccc(Cl)nc34)CC2)c1 [Example 305, 6-chloro-4-{4-[(2-hydroxy-5-methoxyphenyl)methyl]piperazin-1-yl}-1-methyl-2-oxo-1,2-dihydro-1,5-naphthyridine-3-carbonitrile]
[1]
  IC50: 130 nM
[4]
  IC50: 210 nM
[3]
  IC50: 62000 nM
[5]
  IC50: 490 nM
[6]
  IC50: 7500 nM

## Cn1c(=O)c(C#N)c(N2CCN(Cc3cc(F)ccc3O)CC2)c2nc(Cl)ccc21 [Example 312, 6-chloro-4-{4-[(5-fluoro-2-hydroxyphenyl)methyl]piperazin-1-yl}-1-methyl-2-oxo-1,2-dihydro-1,5-naphthyridine-3-carbonitrile]
[1]
  IC50: 120 nM
[4]
  IC50: 240 nM
[3]
  IC50: > 240000 nM
[5]
  IC50: 220 nM
[6]
  IC50: 16000 nM

## Cn1c(=O)c(C#N)c(N2CCN(Cc3cc(F)cc(C(F)(F)F)c3)CC2)c2nc(Cl)ccc21 [Example 313, 6-chloro-4-(4-{[3-fluoro-5-(trifluoromethyl)phenyl]methyl}piperazin-1-yl)-1-methyl-2-oxo-1,2-dihydro-1,5-naphthyridine-3-carbonitrile]
[1]
  IC50: 1500 nM
[4]
  IC50: 250 nM
[3]
  IC50: > 81000 nM
[5]
  IC50: 17000 nM
[6]
  IC50: 62000 nM

## Cn1c(=O)c(C#N)c(N2CCN(Cc3cccc(F)c3)CC2)c2nc(Cl)ccc21 [Example 321, 6-chloro-4-{4-[(3-fluorophenyl)methyl]piperazin-1-yl}-1-methyl-2-oxo-1,2-dihydro-1,5-naphthyridine-3-carbonitrile]
[1]
  IC50: 160 nM
[4]
  IC50: 310 nM
[3]
  IC50: > 240000 nM
[5]
  IC50: 340 nM
[6]
  IC50: 12000 nM

## Cn1c(=O)c(C#N)c(N2CCN(Cc3ccc(Cl)c(O)c3)CC2)c2nc(Cl)ccc21 [Example 323, 6-chloro-4-{4-[(4-chloro-3-hydroxyphenyl)methyl]piperazin-1-yl}-1-methyl-2-oxo-1,2-dihydro-1,5-naphthyridine-3-carbonitrile]
[1]
  IC50: 140 nM
[4]
  IC50: 340 nM
[3]
  IC50: 11000 nM
[5]
  IC50: 1200 nM
[6]
  IC50: 27000 nM

## Cc1ccc2c(n1)c(N1CCN(Cc3cccc(F)c3O)CC1)c(C#N)c(=O)n2C [Example 329, 4-{4-[(3-fluoro-2-hydroxyphenyl)methyl]piperazin-1-yl}-1,6-dimethyl-2-oxo-1,2-dihydro-1,5-naphthyridine-3-carbonitrile]
[1]
  IC50: 560 nM
[4]
  IC50: 470 nM
[3]
  IC50: 30000 nM
[5]
  IC50: 5600 nM
[6]
  IC50: 49000 nM

## Cn1c(=O)c(C#N)c(N2CCN(Cc3ccc(Cl)c(O)c3)CC2)c2nc(C#N)ccc21 [Example 332, 8-{4-[(4-chloro-3-hydroxyphenyl)methyl]piperazin-1-yl}-5-methyl-6-oxo-5,6-dihydro-1,5-naphthyridine-2,7-dicarbonitrile]
[1]
  IC50: 1100 nM
[4]
  IC50: 530 nM
[3]
  IC50: 67000 nM
[5]
  IC50: 2500 nM
[6]
  IC50: 6500 nM

## COc1cccc(F)c1CN1CCN(c2c(C#N)c(=O)n(C)c3ccc(Cl)nc23)CC1 [Example 335, 6-chloro-4-{4-[(2-fluor-6-methoxyphenyl)methyl]piperazin-1-yl}-1-methyl-2-oxo-1,2-dihydro-1,5-naphthyridine-3-carbonitrile]
[1]
  IC50: 2700 nM
[4]
  IC50: 540 nM
[3]
  IC50: > 240000 nM
[5]
  IC50: 1900 nM
[6]
  IC50: 18000 nM

## Cn1c(=O)c(C#N)c(N2CCN(Cc3cc(O)cc(F)c3)CC2)c2nc(Cl)ccc21 [Example 338, 6-chloro-4-{4-[(3-fluoro-5-hydroxyphenyl)methyl]piperazin-1-yl}-1-methyl-2-oxo-1,2-dihydro-1,5-naphthyridine-3-carbonitrile]
[1]
  IC50: 1100 nM
[4]
  IC50: 580 nM
[3]
  IC50: > 240000 nM
[5]
  IC50: 5100 nM
[6]
  IC50: 66000 nM

## Cn1c(=O)c(C#N)c(N2CCN(Cc3cc(C#N)ccc3F)CC2)c2nc(Cl)ccc21 [Example 340, 6-chloro-4-{4-[(5-cyano-2-fluoro-phenyl)methyl]piperazin-1-yl}-1-methyl-2-oxo-1,2-dihydro-1,5-naphthyridine-3-carbonitrile]
[1]
  IC50: 4200 nM
[4]
  IC50: 690 nM
[3]
  IC50: > 240000 nM
[5]
  IC50: 3400 nM
[6]
  IC50: 17000 nM

## Cn1c(=O)c(C#N)c(N2CCN(Cc3ccc(O)c(F)c3)CC2)c2nc(Cl)ccc21 [Example 357, 6-chloro-4-{4-[(3-fluoro-4-hydroxyphenyl)methyl]piperazin-1-yl}-1-methyl-2-oxo-1,2-dihydro-1,5-naphthyridine-3-carbonitrile]
[1]
  IC50: 28 nM
[4]
  IC50: 5000 nM
[3]
  IC50: > 240000 nM
[5]
  IC50: 85 nM
[6]
  IC50: 47000 nM

## Cn1c(=O)c(C#N)c(N2CCN(Cc3cccc4c3NC(=O)C4)CC2)c2nc(Br)ccc21 [Example 374, 6-bromo-1-methyl-2-oxo-4-{4-[(2-oxo-2,3-dihydro-1H-indol-7-yl)methyl]piperazin-1-yl}-1,2-dihydro-1,5-naphthyridine-3-carbonitrile]
[2]
  IC50: 7930 nM

## Cn1c(=O)c(C#N)c(N2CCN(Cc3cccc4c3NC(=O)C4)CC2)c2nc(Cl)ccc21 [Example 376, 6-chloro-1-methyl-2-oxo-4-{4-[(2-oxo-2,3-dihydro-1H-indol-7-yl)methyl]piperazin-1-yl}-1,2-dihydro-1,5-naphthyridine-3-carbonitrile]
[2]
  IC50: 10000 nM

## Cn1c(=O)c(C#N)c(N2CCN(Cc3cccc(C(C)(C)C)c3O)CC2)c2nc(Cl)ccc21 [Example 384, 4-{4-[(3-tert-butyl-2-hydroxyphenyl)methyl]piperazin-1-yl}-6-chloro-1-methyl-2-oxo-1,2-dihydro-1,5-naphthyridine-3-carbonitrile]
[2]
  IC50: 180 nM

## Cc1cccc(Cl)c1CN1CCN(c2c(C#N)c(=O)n(C)c3ccc(Cl)nc23)CC1 [Example 419, 6-chloro-4-{4-[(2-chloro-6-methylphenyl)methyl]piperazin-1-yl}-1-methyl-2-oxo-1,2-dihydro-1,5-naphthyridine-3-carbonitrile]
[1]
  IC50: 81000 nM
[4]
  IC50: 290 nM
[3]
  IC50: > 81000 nM
[5]
  IC50: 49000 nM
[6]
  IC50: 15000 nM
